Test results reported in patent publication US10150948B2, “Compositions and methods for producing and administering brown adipocytes” (The Regents of the University of California, priority 2013, dated 2018).

What was measured:
[1] = test system: WAT derived ADMSCs; test: Neutral lipid staining of ADMSCs differentiated on adhesion peptide coated TCPS; assay type: cell-based, mouse; settings: neutral lipid staining after differentiation on peptide coated TCPS
Protocol: Fat depots from L2G85 (FVB/NJ) or C57BL6/J mice, perigonadal (visceral) or inguinal (subcutaneous) respectively, were isolated post mortem from 3 month old mice. These fat depots were washed with sterile phosphate buffered saline (PBS) for 10 minutes. The tissues were then minced with scissors into fragments smaller than 1 mm and digested in 0.1% type II collagenase (Gibco) in DMEM with 5% bovine serum albumin (BSA) (Fisher) for 1 hr at room temperature (RT) on an orbital shaker. The digest was then filtered through sterile gauze and centrifuged at 400×RCF for 10 minutes. The cell pellet was then suspended in an erythrocyte lysis buffer 155 mM NH4Cl, 5.7 mM K2HPO4, 0.1 mM EDTA in ultrapure water for 10 m minutes. The resulting suspension was then centrifuged at 400×RCF for 10 minutes to pellet the ADMSCs. The resulting ADMSC pellet was suspended in DMEM with 10% fetal bovine serum (FBS) and 1% P/S and plated on TCPS. […]
FIGS. 1A-F: Effects of adhesion ligands ADMSC differentiation. […] C) Quantitative rtPCR analysis of UCP1 expression of WAT derived murine ADMSCs that were differentiated on indicated adhesion substrate coated TCPS (see Tab. […] D) Quantitative rtPCR analysis of UCP1 expression of WAT derived ADMSCs differentiated on mixtures of Ag73 and C16 (n=6). […] F) Quantitative rtPCR analysis of UCP1 expression of WAT derived ADMSCs differentiated on mixtures of Ag73 and Ag32 (n=6).

[2] = test system: WAT derived murine ADMSCs; test: UCP1 expression (quantitative rtPCR) of ADMSCs differentiated on adhesion peptide coated TCPS; assay type: cell-based, mouse; settings: ADMSCs differentiated on single peptide coated TCPS; vs uncoated TCPS
Protocol: Fat depots from L2G85 (FVB/NJ) or C57BL6/J mice, perigonadal (visceral) or inguinal (subcutaneous) respectively, were isolated post mortem from 3 month old mice. These fat depots were washed with sterile phosphate buffered saline (PBS) for 10 minutes. The tissues were then minced with scissors into fragments smaller than 1 mm and digested in 0.1% type II collagenase (Gibco) in DMEM with 5% bovine serum albumin (BSA) (Fisher) for 1 hr at room temperature (RT) on an orbital shaker. The digest was then filtered through sterile gauze and centrifuged at 400×RCF for 10 minutes. […]
Purified peptides were suspended at 20 μM in ultrapure water with 1% P/S. In 24 well TC plates (BD Falcon, 353047), 20 μM peptide suspensions were added to each well. […] The adherent and non adherent cells were then counted with the CyQuant kit (Invitrogen).
Tissue samples suspended in RNALater ICE (Ambion) and stored at −20° C. mRNA was isolated from RNALater ICE stabilized tissues or directly from in vitro cultures of monolayers or cell laden hydrogels with Trizol reagent (Ambion). […] Established delta delta CT method was employed to comparatively assess mRNA quantity. […]
FIGS. 1A-F: Effects of adhesion ligands ADMSC differentiation. […] C) Quantitative rtPCR analysis of UCP1 expression of WAT derived murine ADMSCs that were differentiated on indicated adhesion substrate coated TCPS (see Tab. […]

“CGGKAFDITYVRLKF [C16, α5β1/3 integrin-engaging ligand, laminin γ1 chain peptide with N-terminal CGG]” was tested, and the lipid accumulation [1] was “significantly greater lipid accumulation”.

For “CGGRKRLQVQLSIRT [AG73, adhesion ligand for α6 integrins and syndecan-1, laminin a1 chain peptide with N-terminal CGG]”, the UCP1 expression [2] was “particularly efficient in driving UCP1 expression”.
